# Marks after values point to notes of the source that are not given here.
# Assays:
# Format in all cases: cell-based
# [1] = test system: living human skin explants; experiment: Biochemical assay of MDA (lipid peroxidation) on living human skin explants exposed to pollutants
# Method: Product A (Table 11) was diluted in water to obtain the following products at concentrations: product P1=A at 4%, product P2=A at 2% and product P3=A at 1%.
# 59 human skin explants of an average diameter of 14 mm (±1 mm) were prepared on an abdoplasty coming from a person. The explants were kept in survival in BEM culture medium at 37° C. in a humid, 5%-CO2 atmosphere.
# The tested products were topically applied on the basis of 2 μl per cm^2 and spread using a small spatula twice a day (morning and evening) on day 0, 1, 2, 3 and 4.
# On D4, the explants of the batches ML and PML were placed on the 3D grid with 900 μl of HBSS and placed into the PolluBox® system.
# 3 mL of the solution <<ML>> (supplemented with 150 μl/ml of NaCl 0.9%) were exposed by vaporization for 1 hour and half, as shown in the figure below.
# The MDA assay was realized with an enhanced method of the TBARs (Thiobarbituric Acid Reactive Species) assay. The MDA was assayed in HBSS medium by addition of TBARs solution (thiobarbituric acid, hydrochloric acid and tricholoroacetic acid) and placed in a water bath (80° C. for 15 minutes). A lot of substances (like glucose) which are not related with lipoperoxidation, react with thiobarbituric acid (ThioBarbituric Acid Reagents=TBARS), so to enhance the specificity of the assay, the MDA was extracted by a liquid/liquid extraction with butanol. The MDA in butanol was measured in spectrofluorimetry (excitation: 515 nm, emission: 550 nm) using a Tecan Infinite M200 Pro microplate reader. Using this assay, MDA contained in the culture medium BEMc on […] was measured for the 4 explants per batch. The MDA concentration was expressed in pmol of MDA/ml of the medium. Concerned batches: all batches on day 5, 4 explants per batch.
# The average of the blank batch TJ5 was calculated (154.0 nmol/L). Then, for each explant of MLJ5, this average value was subtracted from […]. That corresponds to calculating the delta (increase) of MDA induced by ML for each explant compared to the average of the batch without ML, it is ΔML.
# These average deltas were then compared to the average delta of MDA induction without treatment (ΔML).
# [2] = test system: human living skin explant; experiment: Immunostaining of carbonylated proteins (FTZ) on human living skin explants; details: UV irradiated
# Method: (§1) human skin explants of an average diameter of 12 mm (±1 mm) were prepared on an abdoplasty coming from a person). The explants were kept in survival in BEM culture medium at 37° C. in a humid, 5%-CO2 atmosphere.
# (§2) On day 0 (D0), day 1, day 2 and day 3 (3 hours before irradiation), the tested products were applied topically on surface of skin explants at the rate of 2 mg/cm^2, twice a day for D1 and D2 and once on DO and D3. […] The medium was half renewed (1 ml per well) on day 2.
# (§3) On D3, the culture media of all the batches was replaced by HBSS solution (Hank's Balanced Saline Solution; 1 ml per explant). The batches “UV” were irradiated by UVA+ UVB using a UV simulator Vibert Lourmat RMX 3W with a dose of 18 J/cm2 of UVA (4 MED, minimal erythemal dose) and 0.3 J/cm2 of UVB (2 MED). The unirradiated batches were kept in HBSS in the dark. At the end of the irradiation the explants were put back in 2 mL of BEM medium.
# (§4) After fixation for 24 hours in buffered formalin, the samples were dehydrated and impregnated in paraffin using a Leica PEARL dehydration automat. The samples were embedded using a Leica EG 1160 embedding station. 5-μm-thick sections were made using a Leica RM 2125 Minot-type microtome, and the sections were mounted on Superfrost® histological glass slides. The frozen samples were cut into 7-μm-thick sections using a Leica CM 3050 cryostat. Sections were then mounted on Superfrost® plus silanized glass slides. The microscopical observations were realized using a Leica DMLB or Olympus BX43 microscope. Pictures were digitized with a numeric DP72 Olympus camera with CellD storing software.
# Protein carbonylation is a type of protein oxidation that can be promoted by reactive oxygen species (ROS), generated by UV exposure. FTZ marker assay was conducted by immunostaining in the living epidermis of human skin explant as follows: Carbonylated proteins were stained on frozen sections with the anti-carbonylated proteins probe (fluorescein-5-thiosemicarbazid-FTZ) (Lifetechnologies, Ref. F-121) diluted at 0.5 μM in MES-Na+ and incubated for 30 minutes in the dark and at room temperature. The staining was observed by epifluorescence and assessed by microscopical observations. Batches analyzed were T, TUV, P1UV, P2UV, P3UV at day 4 also referred to as TJ4, TUVJ4, P1UVJ4, P2UVJ4, P3UVJ4
# [3] = test system: human living skin explant; experiment: TUNEL assay (UV-induced DNA damage) on human living skin explants
# Method: as §1, §2, §3, §4
# DNA oxidization is a type of damage that can be promoted by reactive oxygen species (ROS), generated by UV exposure. […] The staining was assessed by microscopical observation. Batches analyzed were T, TUV, P1UV, P2UV, P3UV at day 4 also referred to as TJ4, TUVJ4, P1UVJ4, P2UVJ4, P3UVJ4 (T=Control batch non treated non irradiated; TJ4=T at Day 4 (D4); TUV: control batch non treated UV irradiated; TUVJ4=[…] at Day 4; P1J4: product A 4% non irradiated at D4; P2J4: product A 2% non irradiated at D4; P3J4: product A 1% non irradiated at D4; P1UV: product A 4% UV irradiated; P1UVJ4: product A 4% UV irradiated at D4 P2UV: product A 2% UV irradiated; P2UVJ4: product A 2% UV irradiated at D4; P3UV: product A 1% UV irradiated; P3UVJ4: product A 1% UV irradiated at D4
# [4] = test system: human living skin explant; experiment: Cell viability of human living skin explants (UV study); details: day 4
# Method: as §1, §2, §3, §4
# [5] = test system: Reconstructed Human Epidermis (RHE); experiment: Caffein diffusion test on Reconstituted Human Epidermis (RHE); details: for caffein diffusion through RHE: systemic treatment
# Method: By measuring the amount of […] […] The epidermis used was a Reconstructed Human Epidermis, called “RHE”, 0-day-old, batch no 01015-444, placed in culture conditions 37° C., 5% CO2. The assay medium was the Bioalternatives maintenance medium. RHE at Day 0 (when placed at the air/liquid interface) were placed in assay medium containing or not (control) the compounds, the combination or the reference (vitamin C at 200 μg/ml). This is referred to as a systemic application, to be differentiated from a topical application. RHE were then incubated for 7 days with treatment renewal at Day 3 and Day 5. All experimental conditions were performed in n=3. At the end of incubation (Day 7), radioactive […] ([^14[…] applied on the surface of each epidermis. The radioactivity contained in subnatants was measured by liquid scintillation after 30 minutes, 1, 2, 3, 4, 5, 6, 7 and 8 hours of incubation. The barrier function is calculated according to the below formula:
structure (smiles),measurement,setting,value
"O=C(O)[C@@H]1CCCN1 [Combination P5, L-Proline]","MDA, variation ΔPML vs ΔML","[1]; MDA induction by pollutants, day 5",−48%*
same,reduction of the increase of MDA,[1]; after pollutant exposure (ΔPML vs ΔML),48%
same,"MDA, variation PML vs ML","[1]; after pollutants exposure, day 5",−14% #
same,effect on UV-induced carbonylated proteins,[2],slightly inhibits the formation of carbonylated proteins
same,activity against UV-induced DNA damage,[3]; UV irradiated,totally inhibits the increase of DNA damage
same,"DNA damage (TUNEL), variation vs TJ4","[3]; non irradiated, day 4",↔ (indicates no variation)
same,"Cell Viability, variation vs TUVJ4",[4]; UV irradiated,↔ (indicates no variation)
same,"Cell Viability, variation vs TJ4",[4]; non irradiated,↔ (indicates no variation)
C[N+](C)(C)CC(=O)O [betaine],Barrier function % Control,"[5]; 0.5 hrs, 10 mg/ml",97%
same,Mean [14C]-caffein (cpm),"[5]; 0.5 hrs, 10 mg/ml",20507 cpm
same,[14C]-caffein % Control,"[5]; 0.5 hrs, 10 mg/ml",104%
same,Barrier function % Control,"[5]; 1 hrs, 10 mg/ml",91%
same,Mean [14C]-caffein (cpm),"[5]; 1 hrs, 10 mg/ml",50356 cpm
same,[14C]-caffein % Control,"[5]; 1 hrs, 10 mg/ml",110%
same,Barrier function % Control,"[5]; 2 hrs, 10 mg/ml",85%
same,Mean [14C]-caffein (cpm),"[5]; 2 hrs, 10 mg/ml",117502 cpm
same,[14C]-caffein % Control,"[5]; 2 hrs, 10 mg/ml",117%
same,Barrier function % Control,"[5]; 3 hrs, 10 mg/ml",87%
same,Mean [14C]-caffein (cpm),"[5]; 3 hrs, 10 mg/ml",156579 cpm
same,[14C]-caffein % Control,"[5]; 3 hrs, 10 mg/ml",114%
same,Barrier function % Control,"[5]; 4 hrs, 10 mg/ml",91%
same,Mean [14C]-caffein (cpm),"[5]; 4 hrs, 10 mg/ml",173278 cpm
same,[14C]-caffein % Control,"[5]; 4 hrs, 10 mg/ml",110%
same,Barrier function % Control,"[5]; 5 hrs, 10 mg/ml",92%
same,Mean [14C]-caffein (cpm),"[5]; 5 hrs, 10 mg/ml",186588 cpm
same,[14C]-caffein % Control,"[5]; 5 hrs, 10 mg/ml",108%
same,Barrier function % Control,"[5]; 6 hrs, 10 mg/ml",93%
same,Mean [14C]-caffein (cpm),"[5]; 6 hrs, 10 mg/ml",193499 cpm
same,[14C]-caffein % Control,"[5]; 6 hrs, 10 mg/ml",107%
same,Barrier function % Control,"[5]; 7 hrs, 10 mg/ml",96%
same,Mean [14C]-caffein (cpm),"[5]; 7 hrs, 10 mg/ml",196233 cpm
same,[14C]-caffein % Control,"[5]; 7 hrs, 10 mg/ml",104%
same,Barrier function % Control,"[5]; 8 hrs, 10 mg/ml",99%
same,Mean [14C]-caffein (cpm),"[5]; 8 hrs, 10 mg/ml",195439 cpm
same,[14C]-caffein % Control,"[5]; 8 hrs, 10 mg/ml",101%
same,caffein diffusion through RHE,[5]; 3 mg/ml,induced a decrease of caffein diffusion through the RHE only after 30 minutes
same,caffein diffusion through RHE,[5]; 10 mg/ml,No inhibitory effect
O=C1O[C@H]([C@@H](O)CO)C(O)=C1O [vitamin C],caffein diffusion through RHE,[5]; 200 μg/ml,decreased significantly this diffusion

# — patent US20210369583A1, “COMPOSITIONS FOR PROVIDING SKIN CARE BENEFITS AND METHODS OF USE” (Danisco US Inc., priority 2018, published 2021)
